Measured values: patent publication US20260272926A1, “HIV-1P ROTEASE INHIBITORS AND USES THEREOF” (Purdue Research Foundation, priority 2023, published 2026)
Several values for one entry are separate records, joined by “and”; a condition that tells them apart may be missing. Equal entries are not always repeated. Where two headings read alike, the source gives them in different places.

How the values were obtained:
HIV-1 protease = molecular target: T1, HIV-1 protease (Human immunodeficiency virus type 1 group M subtype B, UniProt P04585); test: HIV-1 protease enzyme-inhibitory assay (Toth and Marshall); type: biochemical; conditions: for Ki (nM) / Ki: HIV-1 protease inhibitory activity
T1 construct: catalytically active dimeric HIV-1 protease
Description: (§1) The ability of the nilotinib subunit, pyridinyl-pyrimidinyl amino benzamides to serve as P2 ligands in the S2 subsite of HIV-1 protease was investigated. The HIV-1 protease inhibitory activity of these compounds was evaluated in an enzyme-inhibitory assay reported by Toth and Marshall. […] We also determined the antiviral activity of these inhibitors in MT-2 human-T-lymphoid cells exposed to HIVLAI. […] We then examined a pyridyl thiazole heterocycle in place of the pyridyl pyrimidinyl scaffold in compounds 5a-d.

HIVLAI = test: antiviral activity in MT-2 human-T-lymphoid cells exposed to HIVLAI; type: cell-based, HIV-1
Description: as §1

[1] = antiviral, MT-2 cells exposed to HIVLAI, Table 1 and text
[2] = Human immunodeficiency virus 1, MT2, antiviral, MT-2 cells exposed to HIVLAI, Table 1 and text, read-out: IC50
[3] = Human immunodeficiency virus 1, MT2, antiviral, MT-2 cells exposed to HIVLAI, Table 2, read-out: IC50

Row | SMILES | Ki (HIV-1 protease) | IC50 (HIVLAI; [2]) [nM] | IC50 (HIVLAI; [3]) [nM] | other results
1 | Cc1ccc(C(=O)N[C@@H](Cc2ccccc2)[C@H](O)CN(CC(C)C)S(=O)(=O)c2ccc3nc(NC4CC4)sc3c2)cc1Nc1cc(-c2cccnc2)ncn1 |  |  |  | Ki (nM) (HIV-1 protease): Low nM; IC50 (nM) (HIVLAI; [1]): Low nM
2 | COc1ccc(S(=O)(=O)N(CC(C)C)C[C@@H](O)[C@H](Cc2ccccc2)NC(=O)c2cccc(Nc3nc(-c4cccnc4)cs3)c2)cc1 |  |  |  | Ki (nM) (HIV-1 protease): Low nM; IC50 (nM) (HIVLAI; [1]): Low nM
3 | CC(C)CN(C[C@@H](O)[C@H](Cc1ccccc1)NC(=O)c1cccc(Nc2nc(-c3cccnc3)cs2)c1)S(=O)(=O)c1ccc2nc(NC3CC3)sc2c1 |  |  |  | Ki (nM) (HIV-1 protease): Low nM; IC50 (nM) (HIVLAI; [1]): Low nM
4 | COc1ccc(S(=O)(=O)N(CC(C)C)C[C@@H](O)[C@H](Cc2ccccc2)NC(=O)c2ccc(C)c(Nc3nccc(-c4cccnc4)n3)c2)cc1 [Compound 5a, N-((2S,3R)-3-hydroxy-4-((N-isobutyl-4-methoxyphenyl)sulfonamido)-1-phenylbutan-2-yl)-4-methyl-3-((4-(pyridin-3-yl)pyrimidin-2-yl)amino)benzamide] | 0.028 nM | 154 |  | enzyme inhibitory Ki (HIV-1 protease; text b193): 28 PM
5 | Cc1ccc(C(=O)N[C@@H](Cc2ccccc2)[C@H](O)CN(CC(C)C)S(=O)(=O)c2ccc(N)cc2)cc1Nc1nccc(-c2cccnc2)n1 [Compound 5b, N-((2S,3R)-4-((4-amino-N-isobutylphenyl)sulfonamido)-3-hydroxy-1-phenylbutan-2-yl)-4-methyl-3-((4-(pyridin-3-yl)pyrimidin-2-yl)amino)benzamide] | 0.17 nM |  |  | IC50 (HIVLAI; antiviral, MT-2 cells exposed to HIVLAI, Table 1 and text, read-out: IC50): 66.8 nM
6 | COc1ccc(S(=O)(=O)N(CC(C)C)C[C@@H](O)[C@H](Cc2cc(F)cc(F)c2)NC(=O)c2ccc(C)c(Nc3nccc(-c4cccnc4)n3)c2)cc1 [Compound 5c, N-((2S,3R)-1-(3,5-difluorophenyl)-3-hydroxy-4-((N-isobutyl-4-methoxyphenyl)sulfonamido)butan-2-yl)-4-methyl-3-((4-(pyridin-3-yl)pyrimidin-2-yl)amino)benzamide] | 0.58 nM | 124 |  | 
7 | Cc1ccc(C(=O)N[C@@H](Cc2cc(F)cc(F)c2)[C@H](O)CN(CC(C)C)S(=O)(=O)c2ccc(N)cc2)cc1Nc1nccc(-c2cccnc2)n1 [Compound 5d, N-((2S,3R)-4-((4-amino-N-isobutylphenyl)sulfonamido)-1-(3,5-difluorophenyl)-3-hydroxybutan-2-yl)-4-methyl-3-((4-(pyridin-3-yl)pyrimidin-2-yl)amino)benzamide] | 1.92 nM | 212 |  | reduction in antiviral activity (HIVLAI; over compound 5c): 3 fold
8 | COc1ccc(S(=O)(=O)N(CC(C)C)C[C@@H](O)[C@H](Cc2ccccc2)NC(=O)c2ccc(C)c(Nc3nc(-c4cccnc4)cs3)c2)cc1 [Compound 5e, N-((2S,3R)-3-hydroxy-4-((N-isobutyl-4-methoxyphenyl)sulfonamido)-1-phenylbutan-2-yl)-4-methyl-3-((4-(pyridin-3-yl)thiazol-2-yl)amino)benzamide] | 38.3 nM | 390 |  | 
9 | COc1ccc(S(=O)(=O)N(CC(C)C)C[C@@H](O)[C@H](Cc2ccccc2)NC(=O)c2cccc(Nc3nc(-c4cccnc4)cs3)c2C)cc1 [Compound 5f, N-((2S,3R)-3-hydroxy-4-((N-isobutyl-4-methoxyphenyl)sulfonamido)-1-phenylbutan-2-yl)-2-methyl-3-((4-(pyridin-3-yl)thiazol-2-yl)amino)benzamide] | 19.3 nM | > 1000 |  | antiviral activity (in words) (HIVLAI; MT-2 cells exposed to HIVLAI): did not exhibit any appreciable antiviral activity
10 | COc1ccc(S(=O)(=O)N(CC(C)C)C[C@@H](O)[C@H](Cc2ccccc2)NC(=O)c2cc(C)cc(Nc3nc(-c4cccnc4)cs3)c2)cc1 [Compound 5g, N-((2S,3R)-3-hydroxy-4-((N-isobutyl-4-methoxyphenyl)sulfonamido)-1-phenylbutan-2-yl)-3-methyl-5-((4-(pyridin-3-yl)thiazol-2-yl)amino)benzamide] | 185 nM | > 1000 |  | 
11 | COc1ccc(S(=O)(=O)N(CC(C)C)C[C@@H](O)[C@H](Cc2ccccc2)NC(=O)c2cc(Nc3nc(-c4cccnc4)cs3)ccc2C)cc1 [Compound 5h, N-((2S,3R)-3-hydroxy-4-((N-isobutyl-4-methoxyphenyl)sulfonamido)-1-phenylbutan-2-yl)-2-methyl-5-((4-(pyridin-3-yl)thiazol-2-yl)amino)benzamide] | 8.7 nM | 580 |  | 
12 | COc1ccc(S(=O)(=O)N(CC(C)C)C[C@@H](O)[C@H](Cc2ccccc2)NC(=O)c2ccc(C)c(Nc3nc(-c4cccnc4)cs3)c2C)cc1 [Compound 5i, N-((2S,3R)-3-hydroxy-4-((N-isobutyl-4-methoxyphenyl)sulfonamido)-1-phenylbutan-2-yl)-2,4-dimethyl-3-((4-(pyridin-3-yl)thiazol-2-yl)amino)benzamide] |  | 510 |  | 
13 | COc1ccc(S(=O)(=O)N(CC(C)C)C[C@@H](O)[C@H](Cc2ccccc2)NC(=O)c2ccc(C)c(Nc3nc(C)cs3)c2)cc1 [Compound 5j, N-((2S,3R)-3-hydroxy-4-((N-isobutyl-4-methoxyphenyl)sulfonamido)-1-phenylbutan-2-yl)-4-methyl-3-((4-methylthiazol-2-yl)amino)benzamide] | 26 nM and 26.5 nM |  |  | IC50 (HIVLAI; Human immunodeficiency virus 1, MT2): > 1000 nM; antiviral activity (in words) (HIVLAI; MT-2 cells exposed to HIVLAI): did not show any appreciable antiviral activity
14 | COc1ccc(S(=O)(=O)N(CC(C)C)C[C@@H](O)[C@H](Cc2ccccc2)NC(=O)c2cccc(Nc3nc(C)cs3)c2C)cc1 [Compound 5k, N-((2S,3R)-3-hydroxy-4-((N-isobutyl-4-methoxyphenyl)sulfonamido)-1-phenylbutan-2-yl)-2-methyl-3-((4-methylthiazol-2-yl)amino)benzamide] | 71.9 nM |  | > 1000 | 
15 | COc1ccc(S(=O)(=O)N(CC(C)C)C[C@@H](O)[C@H](Cc2ccccc2)NC(=O)c2cc(C)cc(Nc3nc(C)cs3)c2)cc1 [Compound 5l, N-((2S,3R)-3-hydroxy-4-((N-isobutyl-4-methoxyphenyl)sulfonamido)-1-phenylbutan-2-yl)-3-methyl-5-((4-methylthiazol-2-yl)amino)benzamide] | 80 nM |  | > 1000 | 
16 | COc1ccc(S(=O)(=O)N(CC(C)C)C[C@@H](O)[C@H](Cc2ccccc2)NC(=O)c2cc(Nc3nc(C)cs3)ccc2C)cc1 [Compound 5m, N-((2S,3R)-3-hydroxy-4-((N-isobutyl-4-methoxyphenyl)sulfonamido)-1-phenylbutan-2-yl)-2-methyl-5-((4-methylthiazol-2-yl)amino)benzamide] | 75.9 nM |  | > 1000 | 
17 | COc1ccc(S(=O)(=O)N(CC(C)C)C[C@@H](O)[C@H](Cc2ccccc2)NC(=O)c2ccc(C)c(Nc3nc(C(F)(F)F)cs3)c2)cc1 [Compound 5n, N-((2S,3R)-3-hydroxy-4-((N-isobutyl-4-methoxyphenyl)sulfonamido)-1-phenylbutan-2-yl)-4-methyl-3-((4-(trifluoromethyl)thiazol-2-yl)amino)benzamide] | 60.3 nM |  | > 1000 | 
18 | COc1ccc(S(=O)(=O)N(CC(C)C)C[C@@H](O)[C@H](Cc2ccccc2)NC(=O)c2cccc(Nc3nc(C(F)(F)F)cs3)c2C)cc1 [Compound 5o, N-((2S,3R)-3-hydroxy-4-((N-isobutyl-4-methoxyphenyl)sulfonamido)-1-phenylbutan-2-yl)-2-methyl-3-((4-(trifluoromethyl)thiazol-2-yl)amino)benzamide] | 72 nM |  | > 1000 | 
19 | COCc1csc(Nc2ccc(C)c(C(=O)N[C@@H](Cc3ccccc3)[C@H](O)CN(CC(C)C)S(=O)(=O)c3ccc(OC)cc3)c2)n1 [Compound 5p, N-((2S,3R)-3-hydroxy-4-((N-isobutyl-4-methoxyphenyl)sulfonamido)-1-phenylbutan-2-yl)-5-((4-(methoxymethyl)thiazol-2-yl)amino)-2-methylbenzamide] | 18 nM | 630 | 630 | 
